Experimental data published in the NIST ThermoML archive (doi:10.1016/j.jct.2014.07.026).
± gives the expanded uncertainty stated by the source.

assay: not given; details: 298.15 K; 100 kPa; Liquid; Frequency=2 MHz; Linear variable-path acoustic interferometer

Row | SMILES | speed of sound [m/s]
1 | O [water] | 1497.7 ± 2.5

assay: mn = molality of the nth substance listed, in mol/kg; details: 298.15 K; 100 kPa; Liquid; Frequency=2 MHz; Linear variable-path acoustic interferometer; m2 = 0

Row | SMILES | speed of sound [m/s]
2 | O [water] + CCCCn1cc[n+](C)c1.NCC(=O)[O-] | 1497.6 ± 2.5
3 | O [water] + CC(C)C[C@H](N)C(=O)[O-].CCCCn1cc[n+](C)c1 | 1497.6 ± 2.5
4 | O [water] + CCCCn1cc[n+](C)c1.C[C@H](N)C(=O)[O-] | 1497.8 ± 2.5

Results, then the compound that gave them:

Row | speed of sound [m/s] | SMILES
5 | 1497.8 ± 2.5 | O [water] + CCCCn1cc[n+](C)c1.CC[C@H](C)[C@H](N)C(=O)[O-]
6 | 1497.6 ± 2.5 | O [water] + CC(C)[C@H](N)C(=O)[O-].CCCCn1cc[n+](C)c1
